Reference: patent US9233167B2, “Oligomer-opioid agonist conjugates” (NEKTAR THERAPEUTICS, priority 2007, dated 2016)
Read-outs that look alike come from different tables or passages of the source.

Columns and labels:
[1] = target: T1, recombinant human mu opioid receptor (Homo sapiens (Human), UniProt P35372); type: binding
Experimental: (§1) Using conventional receptor binding assay techniques, several molecules were assayed to determine binding activity at kappa, mu and delta opioid subtypes of opioid receptors.
(§2) Cells were plated in 24 well plates at a density of 0.2-0.3*10^6 cells/well and washed with assay buffer containing 50 mM Tris.HCl and 5 mM MgCl2 (pH 7.4). Competition binding assays were conducted in whole cells incubated with increasing concentrations of test compounds in the presence of appropriate concentration of radioligand. 0.5 nM ^3H Naloxone, 0.5 nM ^3H Diprenorphine and 0.5 nM ^3H DPDPE were used as the competing radioligands for mu, kappa and delta receptors respectively. Incubations were carried out for two hours at room temperature using triplicate wells at each concentration. At the end of the incubation, cells were washed with 50 mM Tris HCl (pH 8.0), solubilized with NaOH and bound radioactivity was measured using a scintillation counter.
(§3) Specific binding is determined by subtraction of the cpm bound in the presence of 50-100× excess of cold ligand. Binding data assays were analyzed using GraphPad Prism 4.0 and IC50 is generated by non-linear regression from dose-response curves.

[2] = target: recombinant human delta opioid receptor (Homo sapiens (Human), UniProt P41143); details: Ki relative to nalbuphine
Experimental: as §1, §2, §3

in vivo [3] = details: male, Sprague-Dawley, rat, plasma, iv, 1 mg/kg
in vivo [4] = details: male, Sprague-Dawley, rat, plasma, 5 mg/kg
[5] = Oral pharmacokinetics in Sprague-Dawley rats; details: male, rat, plasma, 5 mg/kg
[6] = target: cloned human mu opioid receptor (Homo sapiens (Human), UniProt P35372); experiment: cell-based
Experimental: (§4) The efficacy of the various PEG-opioid conjugates was measured by their ability to inhibit cAMP formation following receptor activation. Studies were conducted in CHO cells heterologously expressing the cloned human mu, kappa or delta opioid receptors. cAMP was measured using a cAMP HiRange homogenous time-resolved fluorescence assay (HTRF Assay), that is based on a competitive immunoassay principle (Cisbio, Cat.#62AM6PEC).
(§5) Briefly, suspensions of cells expressing either the mu, kappa or delta opioid receptors were prepared in buffer containing 0.5 mM isobutyl-methyl xanthine (IBMX). […] EC50 values were calculated for each compound from a sigmoidal dose-response plot of concentrations versus maximum response. To determine if the compounds behaved as full or partial agonists in the system, the maximal response at the highest tested concentrations of compounds were compared to that produced by a known full agonist.

[7] = Intravenous pharmacokinetics in Sprague-Dawley rats
[8] = target: T1, recombinant human mu opioid receptor; type: binding; remark: listed apart in the source
Experimental: (§6) Radioligand displacement was measured using scintillation proximity assays (SPA).
(§7) Briefly, serial dilutions of the test compounds were placed in a 96-well plate to which were added SPA beads, membrane and radioligand. The assay conditions for each opioid receptor subtype are described in Table 10 below. The plates were incubated for 8 hours-overnight at room temperature, spun at 1000 rpm to pellet the SPA beads, and radioactivity was measured using the TopCount® microplate Scintillation counter. Specific binding at each concentration of test compound was calculated by subtracting the non-specific binding measured in the presence of excess cold ligand. IC50 values were obtained by non-linear regression of specific binding versus concentration curves and Ki values were calculated using Kd values that were experimentally pre-determined for each lot of membrane preparations.

[9] = target: recombinant human kappa opioid receptor (Homo sapiens (Human), UniProt P41145); type: binding
Experimental: as §6, §7

[10] = target: cloned human kappa opioid receptor (Homo sapiens (Human), UniProt P41145); type: cell-based
Experimental: as §4, §5

[11] = inhibition of cAMP formation, 3 μM forskolin, CHO cells
[12] = male, Sprague-Dawley, rat, plasma, iv, 1 mg/kg
[13] = SPA, CHO-K1 membranes, [3H]DAMGO 6 nM
[14] = inhibition of cAMP formation, maximal response vs known full agonist
[15] = hydroxycodone series, IV 1 mg/kg, rats, Mean ± SD

recombinant human delta opioid receptor, sequence (P41143 whole entry, looked up): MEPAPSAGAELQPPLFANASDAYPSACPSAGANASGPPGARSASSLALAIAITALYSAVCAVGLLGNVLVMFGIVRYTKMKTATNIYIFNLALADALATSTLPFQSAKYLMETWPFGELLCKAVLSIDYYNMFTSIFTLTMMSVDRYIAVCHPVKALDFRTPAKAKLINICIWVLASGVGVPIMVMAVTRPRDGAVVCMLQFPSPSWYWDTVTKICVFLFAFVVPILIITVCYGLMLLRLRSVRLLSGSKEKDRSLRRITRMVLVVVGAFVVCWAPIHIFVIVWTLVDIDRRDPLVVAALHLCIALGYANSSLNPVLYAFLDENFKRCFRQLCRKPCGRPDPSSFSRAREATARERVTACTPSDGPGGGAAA

COCCOCCOCCOCCO[C@H]1CC[C@@]2(O)[C@H]3Cc4ccc(O)c5c4[C@@]2(CCN3CC2CCC2)[C@H]1O5 [6-O-mPEG4-Nalbuphine, 6-O-mPEG4-nalbuphine]
Fold vs Nalbuphine At MU [1]: 1.23
Fold vs Nalbuphine At DELTA [2]: 0.47

COc1ccc2c3c1O[C@H]1[C@@H](O)C=C[C@H]4[C@@H](C2)N(C)CC[C@@]341 [Codeine]
AUC (in vivo [3]): 0.183 µg·h/mL
AUC(0-inf) (in vivo [3]): 0.19 µg·h/mL
Cmax (in vivo [3]): 0.469 ± 0.0204 µg/mL
MRT last (in vivo [3]): 40.2 min
Vd (in vivo [3]): 4.14 ± 0.7 L/kg
clearance (in vivo [3]): 5.38 ± 0.918 L/h/kg
bioavailability (in vivo [4]; oral): 0.52%
AUC (in vivo [4]; po): 0.00547 µg·h/mL
AUC(0-inf) (in vivo [4]; po): 0.00718 µg·h/mL
Cmax (in vivo [4]; po): 0.00624 ± 0.00251 µg/mL
MRT last (in vivo [4]; po): 33.2 min
Tmax [5]: 15 min

COc1ccc2c3c1O[C@H]1C(O)CC[C@@]4(O)[C@@H](C2)N(C)CC[C@]314 (stereo partly drawn) [Hydroxycodone, α-6-hydroxycodone, reference compound]
EC50 [6, 11]: 3.16 µM

COc1ccc2c3c1O[C@H]1C(=O)CC[C@@]4(O)[C@@H](C2)N(C)CC[C@]314 [Oxycodone, reference compound]
Emax ([6]; CHO, read-out: MU OPIOID RECEPTOR % max effect): 95%
AUC [5]: 0.0753 µg·h/mL
Cmax [5]: 0.0255 ± 0.00186 µg/mL
MRT last [5]: 179 min
Tmax [5]: 15 min
AUC [7, 12]: 0.213 µg·h/mL
AUC(0-inf) [7, 12]: 0.217 µg·h/mL
Cmax [7, 12]: 0.495 ± 0.056 µg/mL
MRT last [7, 12]: 37 min
clearance [7, 12]: 4.63 ± 0.376 L/h/kg
half-life [7, 12]: 47 ± 3.99 min

COCCOCCO[C@H]1CC[C@@]2(O)[C@H]3Cc4ccc(OC)c5c4[C@@]2(CCN3C)[C@H]1O5 [α-6-mPEG2-O-Hydroxycodone, α-6-mPEG2-O-hydroxycodone]
Ki [8, 13]: 0.632 µM
EC50 [6, 11]: 5 µM
MU OPIOID RECEPTOR % max effect [6, 14]: 101%
AUCall [7, 15]: 12000 ± 1610 ng·min/mL
AUCinf [7, 15]: 12200 ± 1650 ng·min/mL
CL [7, 15]: 5 ± 0.648 L/h/kg
Cmax [7, 15]: 0.513 ± 0.0488 µg/mL
MRTlast [7, 15]: 37.0 ± 2.60 min
T1/2(z) [7, 15]: 44.6 ± 1.80 min
Vss [7, 15]: 3.36 ± 0.298 L/kg

COCCOCCOCCO[C@H]1CC[C@@]2(O)[C@H]3Cc4ccc(OC)c5c4[C@@]2(CCN3C)[C@H]1O5 [α-6-mPEG3-O-Hydroxycodone, α-6-mPEG3-O-hydroxycodone]
Ki [8, 13]: 0.775 µM
EC50 [6, 11]: 2.83 µM
MU OPIOID RECEPTOR % max effect [6, 14]: 108%
AUCall [7, 15]: 13800 ± 1050 ng·min/mL
CL [7, 15]: 4.3 ± 0.299 L/h/kg
Cmax [7, 15]: 0.746 ± 0.00208 µg/mL
MRTlast [7, 15]: 32.5 ± 1.92 min
T1/2(z) [7, 15]: 48.5 ± 7.83 min
Vss [7, 15]: 2.62 ± 0.206 L/kg

COCCOCCOCCOCCOCCO[C@H]1CC[C@@]2(O)[C@H]3Cc4ccc(OC)c5c4[C@@]2(CCN3C)[C@H]1O5 [α-6-mPEG5-O-Hydroxycodone, α-6-mPEG5-O-hydroxycodone]
Ki [8, 13]: 1.86 µM
EC50 [6, 11]: 5.04 µM
MU OPIOID RECEPTOR % max effect [6, 14]: 108%
AUCall [7, 15]: 16900 ± 1800 ng·min/mL
AUCinf [7, 15]: 17700 ± 1990 ng·min/mL
CL [7, 15]: 3.42 ± 0.364 L/h/kg
MRTlast [7, 15]: 46.2 ± 1.86 min
T1/2(z) [7, 15]: 62.1 ± 3.85 min
Vss [7, 15]: 3.30 ± 0.184 L/kg

COCCOCCOCCOCCOCCOCCO[C@H]1CC[C@@]2(O)[C@H]3Cc4ccc(OC)c5c4[C@@]2(CCN3C)[C@H]1O5 [α-6-mPEG6-O-Hydroxycodone, α-6-mPEG6-O-hydroxycodone]
Ki [8, 13]: 1.9 µM
EC50 [6, 11]: 12.5 µM
MU OPIOID RECEPTOR % max effect [6, 14]: 102%
AUCall [7, 15]: 12600 ± 2370 ng·min/mL
AUCinf [7, 15]: 13100 ± 2390 ng·min/mL
CL [7, 15]: 4.67 ± 0.864 L/h/kg
Cmax [7, 15]: 0.445 ± 0.0836 µg/mL
MRTlast [7, 15]: 47.7 ± 1.41 min
T1/2(z) [7, 15]: 62.2 ± 5.17 min
Vss [7, 15]: 4.68 ± 0.938 L/kg

COCCOCCOCCOCCOCCOCCOCCO[C@H]1CC[C@@]2(O)[C@H]3Cc4ccc(OC)c5c4[C@@]2(CCN3C)[C@H]1O5 [α-6-mPEG7-O-Hydroxycodone, α-6-mPEG7-O-oxycodone]
Ki [8, 13]: 1.61 µM
EC50 [6, 11]: 7.45 µM
MU OPIOID RECEPTOR % max effect [6, 14]: 101%
AUCall [7, 15]: 14300 ± 583 ng·min/mL
AUCinf [7, 15]: 15800 ± 728 ng·min/mL
CL [7, 15]: 3.8 ± 0.179 L/h/kg
Cmax [7, 15]: 0.489 ± 0.0265 µg/mL
MRTlast [7, 15]: 54.3 ± 0.372 min
T1/2(z) [7, 15]: 87.0 ± 3.25 min
Vss [7, 15]: 5.31 ± 0.139 L/kg

COCCOCCOCCOCCOCCOCCOCCOCCOCCO[C@H]1CC[C@@]2(O)[C@H]3Cc4ccc(OC)c5c4[C@@]2(CCN3C)[C@H]1O5 [α-6-mPEG9-O-Hydroxycodone, α-6-mPEG9-O-hydroxycodone]
mean t1/2 value as multiple of that of the parent molecule ([7]; IV 1 mg/kg, rats): 3 times
AUCall [7, 15]: 16600 ± 2190 ng·min/mL
AUCinf [7, 15]: 21000 ± 4230 ng·min/mL
CL [7, 15]: 2.93 ± 0.565 L/h/kg
Cmax [7, 15]: 0.955 ± 0.149 µg/mL
MRTlast [7, 15]: 52.7 ± 4.04 min
Vss [7, 15]: 6.35 ± 0.349 L/kg

α-6-mPEG1-O-codeine
Ki [9]: 54.7 µM
Ki [8]: 1.82 µM
EC50 [6]: 8.57 µM
MU OPIOID RECEPTOR % max effect [6]: 80%
KAPPA OPIOID RECEPTOR % max effect [10]: 51%

α-6-mPEG2-O-codeine
Ki [9]: 22.6 µM
Ki [8]: 1.38 µM
EC50 [6]: 5.15 µM
MU OPIOID RECEPTOR % max effect [6]: 75%
EC50 [10]: 40.1 µM
KAPPA OPIOID RECEPTOR % max effect [10]: 59%

α-6-mPEG4-O-codeine
Ki [9]: 97 µM
Ki [8]: 2.89 µM
EC50 [6]: 22.1 µM
MU OPIOID RECEPTOR % max effect [6]: 99%

α-6-mPEG5-O-codeine
Ki [9]: 59.1 µM
KAPPA OPIOID RECEPTOR % max effect [10]: 60%

α-6-mPEG6-O-codeine
Ki [9]: > 160 µM
Ki [8]: 14.2 µM
EC50 [6]: 97.4 µM
MU OPIOID RECEPTOR % max effect [6]: 80%
KAPPA OPIOID RECEPTOR % max effect [10]: 21%

α-6-mPEG7-O-codeine
Ki [8]: 9.96 µM
EC50 [6]: 44.7 µM
MU OPIOID RECEPTOR % max effect [6]: 75%

α-6-mPEG9-O-codeine
Ki [8]: 9.98 µM
EC50 [6]: 48.2 µM
MU OPIOID RECEPTOR % max effect [6]: 80%
